As usually defined, the IC50 is the concentration needed to halve the response being measured.

In patent publication US10227357B2, “Compounds and methods for kinase modulation, and indications therefor” (Plexxikon Inc., priority 2012, dated 2019) one finds IC50 data, which are given here for 26 molecules.

Assay [1] has as its target T1, c-kit kinase (Homo sapiens, UniProt P10721).
T1 construct: The c-kit (or kinase domain thereof) is an active kinase in AlphaScreen; poly-Histidine tag (in-house protein only) (cleaved yes); host or cells: E. coli BL21(DE3)RIL, co-expressed with PTP1B
Kind of assay: c-Kit biochemical assay, AlphaScreen, 10 μM ATP. The conditions noted are these: c-kit biochemical inhibitory activity; read-out: Biochemical activity (IC50 μM) Kit. An outline of the steps:
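His-tagged c-Kit expressed in E. coli with co-expressed PTP1B (dephosphorylated), tag removed; 0.1 ng per reaction with biotinylated-peptide substrate in 50 mM HEPES pH 7.2, 5 mM MgCl2, 5 mM MnCl2, 5% DMSO, 10 μM ATP, 1 h at room temperature. Phosphorylation detected by AlphaScreen (streptavidin donor, PY20 acceptor beads); IC50 from 8-point 1:3 dilution series.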
(In general: Alpha assays give light when donor and acceptor beads are brought close together.)

Assay [2] concerns the target T2, c-kit mutant D816V (Homo sapiens, UniProt P10721, D816V/DEL694-753).
T2 construct: residues 551-934, kinase insertion domain residues 694-753 deleted; 6x-histidine (N); made in house; host or cells: E. coli Arctic Express (DE3) RIL (Stratagene)
Briefly: c-Kit mutant D816V biochemical assay, AlphaScreen. The conditions noted are these: c-kit D816V biochemical inhibitory activity; read-out: Biochemical activity (IC50 μM) Kit D816V. The method in brief:
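Purified His-tagged c-Kit D816V (E. coli-expressed) assayed in 25 mM HEPES pH 7.2 with Mg/Mn, 5% DMSO and 10 μM ATP, 30 min at room temperature, 8-point 1:3 dilutions. Phosphorylation detected by AlphaScreen with streptavidin donor and PY20 acceptor beads; IC50 from signal versus concentration.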

T2 sequence (P10721 with tags, fused parts or gaps DEL694-753/D816V): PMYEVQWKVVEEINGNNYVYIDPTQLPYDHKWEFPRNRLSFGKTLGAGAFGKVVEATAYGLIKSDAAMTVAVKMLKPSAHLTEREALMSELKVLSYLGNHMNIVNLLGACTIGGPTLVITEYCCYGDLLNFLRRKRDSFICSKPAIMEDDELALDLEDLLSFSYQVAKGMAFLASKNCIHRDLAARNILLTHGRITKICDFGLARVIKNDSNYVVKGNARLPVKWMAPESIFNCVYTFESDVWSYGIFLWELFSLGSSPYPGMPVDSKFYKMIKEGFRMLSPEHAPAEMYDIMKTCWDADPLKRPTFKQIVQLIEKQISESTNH
T1 sequence (P10721 26-976): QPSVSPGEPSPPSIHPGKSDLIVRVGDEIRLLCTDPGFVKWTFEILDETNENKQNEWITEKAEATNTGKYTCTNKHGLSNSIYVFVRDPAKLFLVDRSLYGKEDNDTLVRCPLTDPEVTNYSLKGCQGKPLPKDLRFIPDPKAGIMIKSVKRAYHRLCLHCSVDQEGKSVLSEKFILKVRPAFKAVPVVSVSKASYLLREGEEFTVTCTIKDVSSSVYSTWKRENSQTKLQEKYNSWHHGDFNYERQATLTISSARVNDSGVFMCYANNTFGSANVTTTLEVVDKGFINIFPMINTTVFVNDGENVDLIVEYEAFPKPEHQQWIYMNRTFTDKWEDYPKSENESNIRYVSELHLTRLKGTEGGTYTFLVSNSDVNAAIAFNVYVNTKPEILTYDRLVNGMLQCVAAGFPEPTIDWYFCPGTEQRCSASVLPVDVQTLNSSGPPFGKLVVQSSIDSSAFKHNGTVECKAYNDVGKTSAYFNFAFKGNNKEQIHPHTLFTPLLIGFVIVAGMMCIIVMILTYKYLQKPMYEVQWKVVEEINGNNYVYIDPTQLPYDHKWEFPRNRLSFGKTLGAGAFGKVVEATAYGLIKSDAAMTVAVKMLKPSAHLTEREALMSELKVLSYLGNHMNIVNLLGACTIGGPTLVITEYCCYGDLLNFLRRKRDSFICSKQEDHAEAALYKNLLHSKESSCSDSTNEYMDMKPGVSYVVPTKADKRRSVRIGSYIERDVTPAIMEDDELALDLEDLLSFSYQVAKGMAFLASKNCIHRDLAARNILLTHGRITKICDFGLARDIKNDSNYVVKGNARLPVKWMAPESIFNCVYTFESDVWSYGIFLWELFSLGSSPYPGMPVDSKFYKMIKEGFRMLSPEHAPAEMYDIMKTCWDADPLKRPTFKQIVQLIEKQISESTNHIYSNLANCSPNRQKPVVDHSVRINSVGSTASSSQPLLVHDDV

On to `COc1ncc(CNC(=O)N2CCN(c3ncnc4[nH]c(-c5ccc(F)cc5)cc34)CC2)cc1F` [P-0087, N-[(5-fluoro-6-methoxy-3-pyridyl)methyl]-4-[6-(4-fluorophenyl)-7H-pyrrolo[2,3-d]pyrimidin-4-yl]piperazine-1-carboxamide], for which the half-inhibitory concentration (IC50) lay within 1 to 10 µM in assay [1] and 0.0001 to 1 µM in assay [2].

Take `C#Cc1cc2c(N3CCN(C(=O)Nc4ccc(OCC)cc4)CC3)ncnc2[nH]1` [P-0089, N-(4-ethoxyphenyl)-4-(6-ethynyl-7H-pyrrolo[2,3-d]pyrimidin-4-yl)piperazine-1-carboxamide]: the IC50 in assay [1] was 1 to 10 µM; in assay [2], 10 to 200 µM.

`Cn1cc(-c2cc3c(N4CCN(C(=O)Nc5ccc(OC(F)F)cc5)CC4)ncnc3[nH]2)cn1` [P-0091, N-[4-(difluoromethoxy)phenyl]-4-[6-(1-methylpyrazol-4-yl)-7H-pyrrolo[2,3-d]pyrimidin-4-yl]piperazine-1-carboxamide]: the concentration for half-maximal inhibition (IC50) in assay [1] and in assay [2] was 0.0001 to 1 µM throughout.

Turning to `Cn1cc(-c2cc3c(N4CCN(C(=O)Nc5ccc(OC(F)(F)F)cc5)CC4)ncnc3[nH]2)cn1` [P-0092, 4-[6-(1-methylpyrazol-4-yl)-7H-pyrrolo[2,3-d]pyrimidin-4-yl]-N-[4-(trifluoromethoxy)phenyl]piperazine-1-carboxamide], the 50% inhibitory concentration (IC50) in assay [1] and in assay [2] was 0.0001 to 1 µM in each case.

For the molecule `COc1cccc([C@H](C)NC(=O)N2CCN(c3ncnc4[nH]c(-c5cnn(C)c5)cc34)CC2)c1` [P-0093, N-[(1S)-1-(3-methoxyphenyl)ethyl]-4-[6-(1-methylpyrazol-4-yl)-7H-pyrrolo[2,3-d]pyrimidin-4-yl]piperazine-1-carboxamide], the IC50 in assay [1] and in assay [2] was 0.0001 to 1 µM each time.

Regarding `C[C@H](NC(=O)N1CCN(c2ncnc3[nH]c(-c4cnn(C)c4)cc23)CC1)c1ccc(F)cc1` [P-0094, N-[(1S)-1-(4-fluorophenyl)ethyl]-4-[6-(1-methylpyrazol-4-yl)-7H-pyrrolo[2,3-d]pyrimidin-4-yl]piperazine-1-carboxamide], the IC50 lay within 1 to 10 µM in assay [1] and 0.0001 to 1 µM in assay [2].

As for `C[C@H](NC(=O)N1CCN(c2ncnc3[nH]c(-c4cnn(C)c4)cc23)CC1)c1ccc(Cl)cc1` [P-0095, N-[(1S)-1-(4-chlorophenyl)ethyl]-4-[6-(1-methylpyrazol-4-yl)-7H-pyrrolo[2,3-d]pyrimidin-4-yl]piperazine-1-carboxamide], the IC50 in assay [1] and in assay [2] was 0.0001 to 1 µM each time.

Take `Cn1cc(-c2cc3c(N4CCN(C(=O)Nc5ccc(F)cc5)CC4)ncnc3[nH]2)cn1` [P-0096, N-(4-fluorophenyl)-4-[6-(1-methylpyrazol-4-yl)-7H-pyrrolo[2,3-d]pyrimidin-4-yl]piperazine-1-carboxamide]: the IC50 in assay [1] and in assay [2] was 0.0001 to 1 µM in each case.

Turning to `Cn1cc(-c2cc3c(N4CCN(C(=O)NCc5ccc(Cl)cc5)CC4)ncnc3[nH]2)cn1` [P-0097, N-[(4-chlorophenyl)methyl]-4-[6-(1-methylpyrazol-4-yl)-7H-pyrrolo[2,3-d]pyrimidin-4-yl]piperazine-1-carboxamide], the 50% inhibitory concentration (IC50) in assay [1] and in assay [2] was 0.0001 to 1 µM throughout.

For `O=C(NS(=O)(=O)c1ccc(Cl)cc1)N1CCN(c2ncnc3[nH]c(-c4ccc(F)cc4)cc23)CC1` [P-0098, N-(4-chlorophenyl)sulfonyl-4-[6-(4-fluorophenyl)-7H-pyrrolo[2,3-d]pyrimidin-4-yl]piperazine-1-carboxamide], the half-maximal inhibitory concentration (IC50) in assay [1] and in assay [2] was 1 to 10 µM throughout.

Turning to `NS(=O)(=O)c1ccc(-c2cc3c(N4CCN(C(=O)NCc5ccc(F)cc5)CC4)ncnc3[nH]2)cc1` [P-0099, N-[(4-fluorophenyl)methyl]-4-[6-(4-sulfamoylphenyl)-7H-pyrrolo[2,3-d]pyrimidin-4-yl]piperazine-1-carboxamide], the IC50 in assay [1] lay in the range of 1 to 10 µM; in assay [2] it was 0.0001 to 1 µM.

For the molecule `NS(=O)(=O)c1ccc(-c2cc3c(N4CCN(C(=O)Nc5ccc(OC(F)(F)F)cc5)CC4)ncnc3[nH]2)cc1` [P-0100, 4-[6-(4-sulfamoylphenyl)-7H-pyrrolo[2,3-d]pyrimidin-4-yl]-N-[4-(trifluoromethoxy)phenyl]piperazine-1-carboxamide], the results for the IC50 in assay [1] and in assay [2] were 0.0001 to 1 µM and 1 to 10 µM, respectively.

In the case of `O=C(NCc1ccc(F)cc1)N1CCN(c2ncnc3[nH]c(-c4ccncc4)cc23)CC1` [P-0101, N-[(4-fluorophenyl)methyl]-4-[6-(4-pyridyl)-7H-pyrrolo[2,3-d]pyrimidin-4-yl]piperazine-1-carboxamide], the figures for the IC50 in assay [1] and in assay [2] were 1 to 10 µM and 0.0001 to 1 µM, respectively.

Regarding `O=C(Nc1ccc(OC(F)(F)F)cc1)N1CCN(c2ncnc3[nH]c(-c4ccncc4)cc23)CC1` [P-0102, 4-[6-(4-pyridyl)-7H-pyrrolo[2,3-d]pyrimidin-4-yl]-N-[4-(trifluoromethoxy)phenyl]piperazine-1-carboxamide], the IC50 lay in the range of 0.0001 to 1 µM in assay [1] and 1 to 10 µM in assay [2].

In the case of `Cc1ccc(-c2cc3c(N4CCN(C(=O)NCc5ccc(F)cc5)CC4)ncnc3[nH]2)cn1` [P-0103, N-[(4-fluorophenyl)methyl]-4-[6-(6-methyl-3-pyridyl)-7H-pyrrolo[2,3-d]pyrimidin-4-yl]piperazine-1-carboxamide], the figures for the half-maximal inhibitory concentration (IC50) in assay [1] and in assay [2] were 1 to 10 µM and 0.0001 to 1 µM, respectively.

In the case of `COc1cc(-c2cc3c(N4CCN(C(=O)NCc5ccc(F)cc5)CC4)ncnc3[nH]2)ccn1` [P-0104, N-[(4-fluorophenyl)methyl]-4-[6-(2-methoxy-4-pyridyl)-7H-pyrrolo[2,3-d]pyrimidin-4-yl]piperazine-1-carboxamide], the IC50 fell in the range of 10 to 200 µM in assay [1] and 1 to 10 µM in assay [2].

In the case of `NS(=O)(=O)c1cccc(-c2cc3c(N4CCN(C(=O)NCc5ccc(F)cc5)CC4)ncnc3[nH]2)c1` [P-0105, N-[(4-fluorophenyl)methyl]-4-[6-(3-sulfamoylphenyl)-7H-pyrrolo[2,3-d]pyrimidin-4-yl]piperazine-1-carboxamide], the 50% inhibitory concentration (IC50) lay in the range of 1 to 10 µM in assay [1] and 0.0001 to 1 µM in assay [2].

`COc1ncc(-c2cc3c(N4CCN(C(=O)NCc5ccc(F)cc5)CC4)ncnc3[nH]2)cn1` [P-0106, N-[(4-fluorophenyl)methyl]-4-[6-(2-methoxypyrimidin-5-yl)-7H-pyrrolo[2,3-d]pyrimidin-4-yl]piperazine-1-carboxamide]: the half-inhibitory concentration (IC50) in assay [1] and in assay [2] was 1 to 10 µM each time.

As for `CS(=O)(=O)Nc1cccc(-c2cc3c(N4CCN(C(=O)NCc5ccc(F)cc5)CC4)ncnc3[nH]2)c1` [P-0107, N-[(4-fluorophenyl)methyl]-4-[6-[3-(methanesulfonamido)phenyl]-7H-pyrrolo[2,3-d]pyrimidin-4-yl]piperazine-1-carboxamide], the IC50 is 1 to 10 µM in assay [1] and 0.0001 to 1 µM in assay [2].

`NC(=O)c1cccc(-c2cc3c(N4CCN(C(=O)NCc5ccc(F)cc5)CC4)ncnc3[nH]2)c1` [P-0108, 4-[6-(3-carbamoylphenyl)-7H-pyrrolo[2,3-d]pyrimidin-4-yl]-N-[(4-fluorophenyl)methyl]piperazine-1-carboxamide]: the figures for the half-maximal inhibitory concentration (IC50) in assay [1] and in assay [2] were 1 to 10 µM and 0.0001 to 1 µM, respectively.

As for `N#Cc1ccc(-c2cc3c(N4CCN(C(=O)NCc5ccc(F)cc5)CC4)ncnc3[nH]2)cc1` [P-0109, 4-[6-(4-cyanophenyl)-7H-pyrrolo[2,3-d]pyrimidin-4-yl]-N-[(4-fluorophenyl)methyl]piperazine-1-carboxamide], the IC50 in assay [1] was in the range of 10 to 200 µM; in assay [2], 1 to 10 µM.

`N#Cc1cccc(-c2cc3c(N4CCN(C(=O)NCc5ccc(F)cc5)CC4)ncnc3[nH]2)c1` [P-0110, 4-[6-(3-cyanophenyl)-7H-pyrrolo[2,3-d]pyrimidin-4-yl]-N-[(4-fluorophenyl)methyl]piperazine-1-carboxamide]: the 50% inhibitory concentration (IC50) in assay [1] was in the range of 10 to 200 µM; in assay [2] it was 1 to 10 µM.

As for `O=C(Nc1ccc(OC(F)(F)F)cc1)N1CCN(c2ncnc3[nH]c(-c4ccc(C5CC5)nc4)cc23)CC1` [P-0111, 4-[6-(6-cyclopropyl-3-pyridyl)-7H-pyrrolo[2,3-d]pyrimidin-4-yl]-N-[4-(trifluoromethoxy)phenyl]piperazine-1-carboxamide], the 50% inhibitory concentration (IC50) lay within 1 to 10 µM in assay [1] and 10 to 200 µM in assay [2].

Regarding `O=C(Nc1ccc(OC(F)(F)F)cc1)N1CCN(c2ncnc3[nH]c(-c4cnc(C5CC5)nc4)cc23)CC1` [P-0112, 4-[6-(2-cyclopropylpyrimidin-5-yl)-7H-pyrrolo[2,3-d]pyrimidin-4-yl]-N-[4-(trifluoromethoxy)phenyl]piperazine-1-carboxamide], the IC50 in assay [1] is 1 to 10 µM; in assay [2], 10 to 200 µM.

On to `N#CC1(c2ccc(-c3cc4c(N5CCN(C(=O)Nc6ccc(OC(F)(F)F)cc6)CC5)ncnc4[nH]3)cc2)CC1` [P-0113, 4-[6-[4-(1-cyanocyclopropyl)phenyl]-7H-pyrrolo[2,3-d]pyrimidin-4-yl]-N-[4-(trifluoromethoxy)phenyl]piperazine-1-carboxamide], for which the figures for the IC50 in assay [1] and in assay [2] were 0.0001 to 1 µM and 1 to 10 µM, respectively.

Regarding `CN(C)c1ccc(-c2cc3c(N4CCN(C(=O)Nc5ccc(OC(F)(F)F)cc5)CC4)ncnc3[nH]2)cn1` [P-0114, 4-[6-[6-(dimethylamino)-3-pyridyl]-7H-pyrrolo[2,3-d]pyrimidin-4-yl]-N-[4-(trifluoromethoxy)phenyl]piperazine-1-carboxamide], the IC50 in assay [1] lay within 0.0001 to 1 µM; in assay [2], 1 to 10 µM.
